Experimental data from US20060148840A1, “Pyrrolodihydroisoquinolines as pde10 inhibitors” (Altana Pharma AG, priority 2003, published 2006).

| Structure (SMILES) | melting point |
| --- | --- |
| CCOC(=O)c1c(-c2cccc(N(C)C)c2)c(C)n2c1-c1cc(OC)c(OC)cc1CC2(C)C [Example 4, 2-(3-Dimethylamino-phenyl)-8,9-dimethoxy-3,5,5-trimethyl-5,6-dihydro-pyrrolo[2,1-a]isoquinoline-1-carboxylic acid ethyl ester] | 101 to 102 °C |
| COc1cc2c(cc1OC)-c1c(C#N)c(-c3cccc4ccccc34)c(C)n1CC2 [Example 22, 8,9-Dimethoxy-3-methyl-2-naphthalen-1-yl-5,6-dihydro-pyrrolo[2,1-a]isoquinoline-1-carbonitrile] | 226 to 229 °C |
| COC(=O)CCc1c(-c2ccncc2)c(C#N)c2n1CCc1cc(OC)c(OC)cc1-2 [Example 29, 3-(1-Cyano-8,9-dimethoxy-2-pyridin-4-yl-5,6-dihydro-pyrrolo[2,1-a]isoquinolin-3-yl)-propionic acid methyl ester] | 191 to 193 °C |
| COc1cc2c(cc1OC)-c1c(C#N)c(-c3cn(S(C)(=O)=O)c4ccccc34)c(C)n1C(C)C2 (centres unmarked) [Example 40, 2-(1-Methanesulfonyl-1H-indol-3-yl)-8,9-dimethoxy-3,5-dimethyl-5,6-dihydro-pyrrolo[2,1-a]isoquinoline-1-carbonitrile] | 219 to 221 °C |
| COc1cc2c(cc1OC)-c1c(C#N)c(-c3ccnc(C)c3)c(C)n1C(C)C2 (centres unmarked) [Example 45, 8,9-Dimethoxy-3,5-dimethyl-2-(2-methyl-pyridin-4-yl)-5,6-dihydro-pyrrolo[2,1-a]isoquinoline-1-carbonitrile] | 187 to 189 °C |
| CCOc1cc2c(cc1OC)-c1c(C#N)c(-c3cc(C)c(O)c(C)c3)c(C)n1C(C)C2 (centres unmarked) [Example 53, 8-Ethoxy-2-(4-hydroxy-3,5-dimethyl-phenyl)-9-methoxy-3,5-dimethyl-5,6-dihydro-pyrrolo[2,1-a]isoquinoline-1-carbonitrile] | 232 to 234 °C |
| COC(=O)c1c(-c2cc(C)c(O)c(C)c2)c(C)n2c1-c1cc(OC)c(OC)cc1CC2C (centres unmarked) [Example 65, 2-(4-Hydroxy-3,5-dimethyl-phenyl)-8,9-dimethoxy-3,5-dimethyl-5,6-dihydro-pyrrolo[2,1-a]isoquinoline-1-carboxylic acid methyl ester] | 177 to 179 °C |
| COc1cc2c(cc1OC)-c1c(C)c(-c3cc(C)c(O)c(C)c3)c(C)n1CC2 [Example 68, 4-(8,9-Dimethoxy-1,3-dimethyl-5,6-dihydro-pyrrolo[2,1-a]isoquinolin-2-yl)-2,6-dimethyl-phenol] | 183 to 185 °C |
